For data set [1], the system named is human hair follicles. The experiment in a line: recovery of human hair follicle growth inhibition by 15d-PGJ2 in human hair follicle tissue culture. The data set is classed as cell-based. The following applies: for hair follicle growth (hair follicle length when 15d-PGJ2 was treated alone as 100%): 6 days culture, FIG. 5. How it is done: (§1) Human hair tissue was provided from the hair transplant center of Kyungpook National University and used for the experiment by separating the hair follicles from the scalp tissue with the consent of the hair transplant patient (IRB project number: KNUH2014-02-023). After treatment of each compound, human hair tissue was prepared by incubating a 37° C. CO2 incubator for 6 days using Williams E media (Sigma, USA) containing 2 mM L-glutamine, 100 U/ml streptomycin, and 10 ng/ml hydrocortisone and the length of growth was measured using a microscope.
(§2) The data from the above experiments were expressed as mean±SEM. For statistical processing, the mean deviation of each group was measured using Student's t-test, and it was considered significant at p<0.005 and p<0.05.

The test system of data set [2] is human hair follicles. The experiment in a line: toxicity / growth of cultured human hair follicle tissue treated with the compound alone. The data set is classed as cell-based. As to conditions: 6 days culture. How it is done: as §1, §2

The results in this text go back to patent US11612587B2, “Composition for preventing or treating hair loss” (KYUNGPOOK NATIONAL UNIVERSITY INDUSTRY-ACADEMIC COOPERATION …, priority 2018, dated 2023).

The structures appear in SMILES notation.

As to `CC(C)(C)OC(=O)CN1C(=O)C2(CCNC2=O)c2cc(Cl)ccc21` (stereo not shown) [Compound 2], the “hair follicle growth inhibited by 15d-PGJ2” value in data set [1] (Compound 2 0.5 μM, 1 μM simultaneously with 15d-PGJ2 (10 μM), vs 15d-PGJ2 only, FIG. 7) is “significantly increased”. Besides, in data set [2] (compound alone at 0.1 to 10 μM, FIG. 6), the “toxicity in human hair follicle tissue (hair follicle growth vs untreated group)” value is “no significant difference”.
On to `O=C(O)CN1C(=O)C2(CC(=O)N(Cc3cc(Cl)ccc3F)C2=O)c2cc(Cl)ccc21` (stereo not shown) [Compound 1], for which the “hair follicle growth (hair follicle length when 15d-PGJ2 was treated alone as 100%)” value in data set [1] (0.1 nM compound simultaneously with 15d-PGJ2 (10 μM)) is given as 108%; in data set [1] (1 nM compound simultaneously with 15d-PGJ2 (10 μM)) it was 194%; in data set [1] (10 nM compound simultaneously with 15d-PGJ2 (10 μM)), 234%. Moreover, in data set [2] (compound alone at 0.1-10 nM, FIG. 4), the “toxicity in human hair follicle tissue (hair follicle growth vs untreated group)” value is reported as “no significant difference”.
`CCCCC/C=C/C=C1/C(=O)C=C[C@@H]1C/C=C\CCCC(=O)O` [Compound 15d-PGJ2, 15-deoxy-Δ^12,14-prostaglandin J2, reference compound]: the “decrease of hair follicle growth” value in data set [2] (15d-PGJ2 alone at 10 μM, FIG. 1) is “⅓”.
